The record followed here is paper PMC10901349, “Enzymatic properties of UDP-glycosyltransferase 89B1 from radish and modulation of enzyme catalytic activity via loop region mutation” (PLOS ONE, 2024).

Where two headings read alike, the source gives them in different places.

This experiment deals with T1, Rs89B1 (Raphanus sativus, UniProt A0A6J0K544).
T1 construct: gene LOC108814497; full-length CDS, C-terminal 6xHis tag (kept), expressed in Schizosaccharomyces pombe TN4, HisTrap purified; start MTVNEENT (from primer)
T1 sequence (A0A6J0K544 entry or part of it): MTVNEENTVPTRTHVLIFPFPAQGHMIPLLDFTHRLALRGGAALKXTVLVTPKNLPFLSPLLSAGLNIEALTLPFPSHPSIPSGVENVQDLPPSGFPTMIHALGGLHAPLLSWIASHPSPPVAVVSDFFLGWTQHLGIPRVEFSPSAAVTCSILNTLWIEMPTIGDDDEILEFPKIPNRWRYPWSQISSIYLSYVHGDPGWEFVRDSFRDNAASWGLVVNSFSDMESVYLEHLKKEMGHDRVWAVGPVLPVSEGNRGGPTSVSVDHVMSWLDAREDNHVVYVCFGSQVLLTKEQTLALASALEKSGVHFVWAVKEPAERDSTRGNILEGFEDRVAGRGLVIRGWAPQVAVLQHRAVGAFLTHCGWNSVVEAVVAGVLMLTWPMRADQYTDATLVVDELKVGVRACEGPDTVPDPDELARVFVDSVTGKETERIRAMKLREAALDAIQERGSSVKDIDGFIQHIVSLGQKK
The experiment in a line: HPLC glucosyltransferase assay, initial rates, curve fitting. In kind it is biochemical. Conditions: co-substrate UDP-glucose (5.0 mM in basic mix), sodium phosphate pH 7.0, 30°C. The text has this:
HPLC glucosyltransferase assay, initial rates, curve fitting on Rs89B1

Consider `O=C(O)c1ccc(O)c(O)c1O` [2,3,4-THBA, 2,3,4-trihydroxy benzoic acid], for which the Km came out at 138 ± 2 µM. In addition, the Km (read-out: Rs89B1_ins / Km) was 128 ± 4.5 µM.
In the case of `O=C(O)c1c(O)cc(O)cc1O` [2,4,6-THBA], the Km amounted to 198 ± 7.2 µM. Also, the Km (read-out: Rs89B1_ins / Km) was determined as 688 ± 14.6 µM.
As to `O=C(O)c1ccc(O)cc1O` [2,4-DHBA], the Km is 182 ± 4.2 µM. Under “read-out: Rs89B1_ins / Km”, the Km amounted to 212 ± 5.8 µM.
For `O=C(O)c1cc(O)ccc1O` [2,5-DHBA], the Km turned out to be 773.8 ± 1.6 µM. In addition, under “read-out: Rs89B1_ins / Km”, the Km came out at 663.2 ± 2.3 µM.
In the case of `O=C(O)c1ccc(O)cc1` [4-HBA], the Km was found to be 233 ± 12.2 µM. The Km (read-out: Rs89B1_ins / Km) came out at 251 ± 15.4 µM.
